Test results from PMC8389922, “First-in-Class Cyclic Temporin L Analogue: Design, Synthesis, and Antimicrobial Assessment” (Journal of Medicinal Chemistry, 2021).
Converted amounts (≈) assume the structure as drawn. Bridge positions count the residues as written; N and C are the ends. Square brackets hold non-standard residues; d marks the D form. Triazole bridges read from a SMILES are 1,4-linked. Peptide text beside a SMILES is read from it. Lys(N3) = [N-]=[N+]=NCCCC[C@H](N)C(=O)O; Pra = C#CC[C@H](N)C(=O)O

Key:
[1] = circular dichroism; conditions: water; pH ns; 25 °C; 50 uM
[2] = test system: E. coli ATCC 25922; type: cell-based, Escherichia coli
Procedure: (§1) The antimicrobial activity of peptides 9–26 was assessed against a range of reference bacterial strains such as S. aureus ATCC 25923, Staphylococcus epidermidis ATCC 12228, Bacillus megaterium Bm11, E. coli ATCC 25922, P. aeruginosa ATCC 27853, and A. baumannii ATCC 19606 by the broth microdilution assay to determine the minimal growth inhibitory concentration (MIC, Table 1).[59] First, we evaluated the effects produced by the lactam bridge between Lys and Glu residues placed at different positions along the peptide sequence of reference 9. […] When the i,i+7 cyclization strategy was applied (20–23), a dramatic decrease of bacterial inhibition activity was observed. Specifically, the peptides 20, 22, and 23 only affected the microbial growth of the Gram-positive B. megaterium Bm11, at 12.5 μM. […] Peptide 25, which differs from 9 by the presence of an olefin bridge rather than lactam one, dramatically lost the activity (MIC > 100 μM) vs both Gram-positive and Gram-negative strains.
(§2) The determination of MICs was conducted as previously reported.[61] Aliquots of 50 μL of bacterial culture appropriately diluted were added to each well of a 96-well plate to reach a final cell density of 1 × 10^6 CFU/mL and a final peptide concentration ranging from 100 to 0.78 μM (final volume 100 μL).

[3] = test system: S. aureus ATCC 25923; type: cell-based, Staphylococcus aureus
Procedure: as §1, §2

[4] = test system: P. aeruginosa ATCC 27853; type: cell-based, Pseudomonas aeruginosa
Procedure: as §1, §2

[5] = test system: B. megaterium Bm11; type: cell-based, Bacillus megaterium
Procedure: as §1, §2

[6] = test system: S. epidermidis ATCC 12228; type: cell-based, Staphylococcus epidermidis
Procedure: as §1, §2

[7] = test system: A. baumannii ATCC 19606; type: cell-based, Acinetobacter baumannii
Procedure: as §1, §2

[8] = CD spectroscopy, secondary structure content (DichroWeb); type: physicochemical
Procedure: The secondary structures of the linear peptide 9 and its stapled analogues 12, 17, and 24–26 were explored by circular dichroism (CD). CD spectroscopy studies were performed in water, and SDS or DPC micelles (20 mM) were used as mimics of the bacterial or mammalian membranes, respectively.[60]
The secondary structure content was predicted based on the CD spectra from 190 to 260 nm using the online server for protein secondary structure analyses, DichroWeb.[61] […] The hydrocarbon-bridged peptide 25 was slightly helical and structured in water, with weak ellipticity at 220 nm. Peptide 25 contains ∼13% regular helix and ∼10% distorted helix, according to the DichroWeb prediction.
All spectra were measured in the 260–190 nm spectral range, 1 nm bandwidth, 4 accumulations, and 100 nm/min scanning speed.[60] Each peptide was dissolved in water to prepare a 1 mM peptide stock solution. The CD spectra were performed in water, in SDS (20 mM) and in DPC (20 mM) using a peptide concentration of 50 μM. The secondary structure content of the peptides was predicted using the online server for protein secondary structure analyses DichroWeb.[61] Input and output units and the wavelength step were θ (mdeg) and 1.0 nm, respectively. The algorithm used was CONTIN-LL,[83] and reference database was set-7. When we have NRMSD > 0.100, we used the CDSSTR method.[83]

[9] = test system: HaCaT cells (human immortalized keratinocytes); experiment: Cytotoxicity, MTT assay; type: cell-based; conditions: vs untreated control
Procedure: In particular, the cytotoxicity was evaluated by the 3-(4,5-dimethylthiazol-2-yl)-2,5-diphenyltetrazolium bromide (MTT) assay and is expressed as the percentage of viability of peptide-treated cells compared to that of untreated control cells. As expected, after 2 and 24 h treatments, the cell viability decreased in a concentration-dependent manner for all peptides (Figure 2).
Figure 2 Viability of peptide-treated HaCaT cells evaluated by MTT assay at 2 h (a) and 24 h (b). All data are expressed as a percentage with respect to the untreated control cells and are the mean of three independent experiments ± standard error of the mean (SEM).
The human immortalized keratinocytes HaCaT cells (AddexBio, San Diego, CA) were cultured in Dulbecco’s modified Eagle’s medium containing 4 mM glutamine (DMEMg), supplemented with 10% heat-inactivated fetal bovine serum (FBS) and 0.1 mg/mL of penicillin and streptomycin, at 37 °C and 5% CO2, in 25 or 75 cm^2 flasks.
The quantification of cell viability was performed by the in vitro MTT [3-(4,5-dimethylthiazol-2-yl)-2,5-diphenyltetrazolium bromide] assay, as previously reported,[77] measuring the conversion of the soluble yellow dye MTT to insoluble purple formazan by mitochondrial dehydrogenases. More precisely, 4 × 10^4 HaCaT cells, suspended in DMEMg supplemented with 2% FBS without antibiotics, were plated in each well of the 96-well plate. After overnight incubation at 37 °C and 5% CO2, the medium of each well was replaced by DMEMg containing the peptide at different concentrations, as indicated. Controls were HaCaT cells not treated with the peptide. After 2 and 24 h of incubation at 37 °C and 5% CO2, the medium was discarded; 0.5 mg/mL of MTT in Hank’s buffer was added to each well, and the plate was incubated for further 4 h. Acidified isopropanol was then added to dissolve formazan crystals, and the absorbance of each well at 570 nm was measured using a microplate reader (Infinite M200; Tecan, Salzburg, Austria). The purple color intensity is directly proportional to the number of viable cells, which was expressed as a percentage compared to that of untreated control cells (100%).

[10] = CD in DPC micelles (20 mM), peptide 50 μM, 25 °C, DichroWeb
[11] = CD in SDS micelles (20 mM), peptide 50 μM, 25 °C, DichroWeb
[12] = CD in water, peptide 50 μM, 25 °C, DichroWeb
[13] = CD in water, peptide 50 μM, 25 °C, DichroWeb (CONTIN-LL, set-7; CDSSTR if NRMSD > 0.100)

MIC E. coli ATCC 25922 [2] [µM] | MIC S. aureus ATCC 25923 [3] [µM] | MIC P. aeruginosa ATCC 27853 [4] [µM] | MIC B. megaterium Bm11 [5] [µM] | MIC S. epidermidis ATCC 12228 [6] [µM] | MIC A. baumannii ATCC 19606 [7] [µM] | Compound | helicity [1] [%] | helix-1 (regular α-helix) [8, 10] [%] | helix-2 (distorted α-helix) [8, 10] [%] | random [8, 10] [%] | β-strand-1 (regular β-strand) [8, 10] [%] | β-strand-2 (distorted β-strand) [8, 10] [%] | β-turn [8, 10] [%] | helix-1 (regular α-helix) [8, 11] [%] | helix-2 (distorted α-helix) [8, 11] [%] | random [8, 11] [%] | β-strand-1 (regular β-strand) [8, 11] [%] | β-strand-2 (distorted β-strand) [8, 11] [%] | β-turn [8, 11] [%] | helix-2 (distorted α-helix) [8, 12] [%] | also measured
 |  |  |  |  |  | CC[C@H](C)[C@H](NC(=O)[C@H](CCCNC(=N)N)NC(=O)[C@@H]1CCCCn2cc(nn2)C[C@H](NC(=O)[C@H](Cc2ccccc2)NC(=O)[C@H](Cc2c[nH]c3ccccc23)NC(=O)[C@@H]2CCCN2C(=O)[C@@H](NC(=O)[C@@H](N)Cc2ccccc2)C(C)C)C(=O)N[C@@H](CCCCN)C(=O)N[C@@H](Cc2ccccc2)C(=O)N[C@H](CC(C)C)C(=O)N1)C(=O)N[C@@H](CC(C)C)C(N)=O | 6 |  |  |  |  |  |  |  |  |  |  |  |  |  | 
>100 | >100 | >100 | 12.5 (≈ 20.7 µg/mL) | >100 | 100 (≈ 166 µg/mL) | CC[C@H](C)[C@@H]1NC(=O)[C@H](CCCNC(=N)N)NC(=O)CNC(=O)[C@@H](CC(C)C)NC(=O)[C@H](Cc2ccccc2)NC(=O)[C@H](CCCCN)NC(=O)[C@@H](NC(=O)[C@H](Cc2ccccc2)NC(=O)[C@H](Cc2c[nH]c3ccccc23)NC(=O)[C@@H]2CCCN2C(=O)[C@@H](NC(=O)[C@@H](N)Cc2ccccc2)C(C)C)Cc2cn(nn2)CCCC[C@@H](C(N)=O)NC1=O [compound 22] (H-FVPWF[Pra]KF[dL]GRI[Lys(N3)]-NH2; triazole 6-13) |  |  |  |  |  |  |  |  |  |  |  |  |  |  | 
>100 | >100 | >100 | 100 (≈ 172 µg/mL) | >100 | >100 | CC[C@H](C)[C@H](NC(=O)[C@H](CCCNC(=N)N)NC(=O)[C@]1(C)CCCC=CCCC[C@](C)(NC(=O)[C@H](Cc2ccccc2)NC(=O)[C@H](Cc2c[nH]c3ccccc23)NC(=O)[C@@H]2CCCN2C(=O)[C@@H](NC(=O)[C@@H](N)Cc2ccccc2)C(C)C)C(=O)N[C@@H](CCCCN)C(=O)N[C@@H](Cc2ccccc2)C(=O)N[C@H](CC(C)C)C(=O)N1)C(=O)N[C@@H](CC(C)C)C(N)=O [compound 25] | 23 | 54 | 34 | 0 | 0 | 7 | 5 | 41 | 22 | 28 | 0 | 4 | 5 | 10 | aggregation in water (shape of CD spectrum) ([8]; CD in water, peptide 50 μM, 25 °C): form α-helical aggregates; random [8, 12]: 41%; β-strand-1 (regular β-strand) [8, 12]: 12%; β-strand-2 (distorted β-strand) [8, 12]: 8%; β-turn [8, 12]: 16%; helix-1 (regular α-helix) [8, 13]: 13%
25 (≈ 41.7 µg/mL) | 100 (≈ 167 µg/mL) | >100 | 1.56 (≈ 2.6 µg/mL) | 6.25 (≈ 10.4 µg/mL) | 25 (≈ 41.7 µg/mL) | CC[C@H](C)[C@H](NC(=O)[C@H](CCCNC(=N)N)NC(=O)[C@@H]1CSSC[C@H](NC(=O)[C@H](Cc2ccccc2)NC(=O)[C@H](Cc2c[nH]c3ccccc23)NC(=O)[C@@H]2CCCN2C(=O)[C@@H](NC(=O)[C@@H](N)Cc2ccccc2)C(C)C)C(=O)N[C@@H](CCCCN)C(=O)N[C@@H](Cc2ccccc2)C(=O)N[C@H](CC(C)C)C(=O)N1)C(=O)N[C@@H](CC(C)C)C(N)=O [compound 26] (H-FVPWFCKF[dL]CRIL-NH2; disulfide 6-10) | 8 |  |  |  |  |  |  |  |  |  |  |  |  |  | 

Compound | MIC E. coli ATCC 25922 [2] [µM] | MIC S. aureus ATCC 25923 [3] [µM] | MIC P. aeruginosa ATCC 27853 [4] [µM] | MIC B. megaterium Bm11 [5] [µM] | MIC S. epidermidis ATCC 12228 [6] [µM] | MIC A. baumannii ATCC 19606 [7] [µM] | helicity [1] [%] | helix-1 (regular α-helix) [8, 10] [%] | helix-2 (distorted α-helix) [8, 10] [%] | random [8, 10] [%] | β-strand-1 (regular β-strand) [8, 10] [%] | β-strand-2 (distorted β-strand) [8, 10] [%] | β-turn [8, 10] [%] | helix-1 (regular α-helix) [8, 11] [%] | helix-2 (distorted α-helix) [8, 11] [%] | random [8, 11] [%] | β-strand-1 (regular β-strand) [8, 11] [%] | β-strand-2 (distorted β-strand) [8, 11] [%] | β-turn [8, 11] [%] | helix-2 (distorted α-helix) [8, 12] [%] | also measured
CC[C@H](C)[C@H](NC(=O)[C@H](CCCNC(=N)N)NC(=O)[C@@H]1CCCCNC(=O)CC[C@H](NC(=O)[C@H](Cc2ccccc2)NC(=O)[C@H](Cc2c[nH]c3ccccc23)NC(=O)[C@@H]2CCCN2C(=O)[C@@H](NC(=O)[C@@H](N)Cc2ccccc2)C(C)C)C(=O)N[C@@H](CCCCN)C(=O)N[C@@H](Cc2ccccc2)C(=O)N[C@H](CC(C)C)C(=O)N1)C(=O)N[C@@H](CC(C)C)C(N)=O [compound 24] (H-FVPWFEKF[dL]KRIL-NH2; lactam 6-10) | 25 (≈ 42.6 µg/mL) | 3.12 (≈ 5.32 µg/mL) | >100 | 1.56 (≈ 2.66 µg/mL) | 1.56 (≈ 2.66 µg/mL) | 3.12 (≈ 5.32 µg/mL) | 7 | 69 | 23 | 0 | 0 | 3 | 4 | 59 | 18 | 0 | 11 | 5 | 7 | 6 | helix percentage (total) in SDS solution ([8]; CD in SDS micelles (20 mM), DichroWeb, regular plus distorted helix): about 80%; random [8, 12]: 50%; β-strand-1 (regular β-strand) [8, 12]: 16%; β-strand-2 (distorted β-strand) [8, 12]: 9%; β-turn [8, 12]: 17%; helix-1 (regular α-helix) [8, 13]: 1%; HaCaT cell viability ([9]; 2 h treatment, 25 μM, mean of three independent experiments): 60–70%; HaCaT cell viability ([9]; 2 h treatment, 50 μM, mean of three independent experiments): less than 40%; HaCaT cell viability ([9]; 24 h treatment (sentence continues from 50 μM)): less than 20%
